Target: human Gal-3 (hGal-3) (Homo sapiens (Human), UniProt P17931)
Test: competitive binding assay: binding of biotinylated hGal-3 to microplate-adsorbed asialofetuin (ASF), spectrophotometric
Conditions: Activity on hGal-3; mean values of several measurements
Procedure, shortened: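 Compounds in DMSO dilution series competed with 300-1000 ng/mL biotinylated hGal-3 for asialofetuin adsorbed on the plate (3 h, 4° C). Streptavidin-peroxidase at 80 ng/mL (1 h, 4° C) with ABTS gave a spectrophotometric read-out, and IC50 was reported as the mean of repeat runs.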

Chain of human Gal-3 (hGal-3) (P17931 whole entry): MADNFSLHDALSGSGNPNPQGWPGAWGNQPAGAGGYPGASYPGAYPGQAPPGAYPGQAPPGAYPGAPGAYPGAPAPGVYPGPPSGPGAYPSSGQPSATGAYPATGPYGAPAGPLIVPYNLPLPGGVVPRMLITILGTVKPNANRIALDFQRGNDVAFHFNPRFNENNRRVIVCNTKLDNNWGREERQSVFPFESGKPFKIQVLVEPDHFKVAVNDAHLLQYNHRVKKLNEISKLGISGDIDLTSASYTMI

Row | Structure (SMILES) | IC50
1 | CO[C@@H]1[C@@H](n2cc(-c3cc(F)c(Br)c(F)c3)nn2)[C@@H](O)[C@@H](CO)O[C@H]1C(=O)N(c1cc(Br)cc(C#N)c1)[C@H]1CC[C@@H]1O [Example 2.6.5, (2R,3R,4S,5R,6R)-4-(4-(4-bromo-3,5-difluorophenyl)-1H-1,2,3-triazol-1-yl)-N-(3-bromo-5-cyanophenyl)-5-hydroxy-N-((1S,2S)-2-hydroxycyclobutyl)-6-(hydroxymethyl)-3-methoxytetrahydro-2H-pyran-2-carboxamide] | 70.9 nM
2 | CO[C@@H]1[C@@H](n2cc(-c3cc(F)c(Br)c(F)c3)nn2)[C@@H](O)[C@@H](CO)O[C@H]1C(=O)N(c1cc(Br)cc(C#N)c1)[C@@H]1CC[C@H]1O [Example 2.6.5R, (2R,3R,4S,5R,6R)-4-(4-(4-bromo-3,5-difluorophenyl)-1H-1,2,3-triazol-1-yl)-N-(3-bromo-5-cyanophenyl)-5-hydroxy-N-((1R,2R)-2-hydroxycyclobutyl)-6-(hydroxymethyl)-3-methoxytetrahydro-2H-pyran-2-carboxamide] | 303 nM
3 | CO[C@@H]1[C@@H](n2cc(-c3cc(F)c(Br)c(F)c3)nn2)[C@@H](O)[C@@H](CO)O[C@H]1C(=O)N(c1cc(F)cc(C#N)c1)[C@H]1CC[C@@H]1O [Example 2.6.7, (2R,3R,4S,5R,6R)-4-(4-(4-bromo-3,5-difluorophenyl)-1H-1,2,3-triazol-1-yl)-N-(3-cyano-5-fluorophenyl)-5-hydroxy-N-((1S,2S)-2-hydroxycyclobutyl)-6-(hydroxymethyl)-3-methoxytetrahydro-2H-pyran-2-carboxamide] | 183 nM
4 | CO[C@@H]1[C@@H](n2cc(-c3cc(F)c(Br)c(F)c3)nn2)[C@@H](O)[C@@H](CO)O[C@H]1C(=O)N(c1cc(F)cc(C#N)c1)[C@@H]1CC[C@H]1O [Example 2.6.7R, (2R,3R,4S,5R,6R)-4-(4-(4-bromo-3,5-difluorophenyl)-1H-1,2,3-triazol-1-yl)-N-(3-cyano-5-fluorophenyl)-5-hydroxy-N-((1R,2R)-2-hydroxycyclobutyl)-6-(hydroxymethyl)-3-methoxytetrahydro-2H-pyran-2-carboxamide] | 359 nM
5 | CO[C@@H]1[C@@H](n2cc(-c3cc(F)c(F)c(Cl)c3)nn2)[C@@H](O)[C@@H](CO)O[C@H]1C(=O)N(c1cc(Cl)cc(C#N)c1)[C@H]1CC[C@@H]1O [Example 2.7.4, (2R,3R,4S,5R,6R)-4-(4-(3-chloro-4,5-difluorophenyl)-1H-1,2,3-triazol-1-yl)-N-(3-chloro-5-cyanophenyl)-5-hydroxy-N-((1S,2S)-2-hydroxycyclobutyl)-6-(hydroxymethyl)-3-methoxytetrahydro-2H-pyran-2-carboxamide] | 78.6 nM
6 | CO[C@@H]1[C@@H](n2cc(-c3cc(F)c(F)c(Cl)c3)nn2)[C@@H](O)[C@@H](CO)O[C@H]1C(=O)N(c1cc(Cl)cc(C#N)c1)[C@@H]1CC[C@H]1O [Example 2.7.4R, (2R,3R,4S,5R,6R)-4-(4-(3-chloro-4,5-difluorophenyl)-1H-1,2,3-triazol-1-yl)-N-(3-chloro-5-cyanophenyl)-5-hydroxy-N-((1R,2R)-2-hydroxycyclobutyl)-6-(hydroxymethyl)-3-methoxytetrahydro-2H-pyran-2-carboxamide] | 253 nM
7 | CO[C@@H]1[C@@H](n2cc(-c3cc(F)c(F)c(Cl)c3)nn2)[C@@H](O)[C@@H](CO)O[C@H]1C(=O)N(c1cc(Br)cc(C#N)c1)[C@H]1CC[C@@H]1O [Example 2.7.5, (2R,3R,4S,5R,6R)-N-(3-bromo-5-cyanophenyl)-4-(4-(3-chloro-4,5-difluorophenyl)-1H-1,2,3-triazol-1-yl)-5-hydroxy-N-((1S,2S)-2-hydroxycyclobutyl)-6-(hydroxymethyl)-3-methoxytetrahydro-2H-pyran-2-carboxamide] | 80.3 nM
